Assay results as given in article PMC9479156 (Frontiers in Pharmacology, 2022).
Read-outs that look alike come from different tables or passages of the source. Marks after values point to notes of the source that are not given here.

Assays:
[1] = system: asexual blood stage P. falciparum K1 (multidrug resistant); experiment: SYBR Green I proliferation assay, asexual blood stage Pf K1; type: cell-based, Plasmodium falciparum
Description: In vitro cultivation of asexual and gametocyte P. falciparum parasites: P. falciparum asexual blood stage parasites were cultivated in human erythrocytes in RPMI-1640 media supplemented with AlbuMax II under sterile conditions and in a hypoxic environment (90% N2, 5% CO2, and 5% O2) at 37°C as described previously ([Coertzen et al., 2018]; [Wong et al., 2019]). Gametocytes were produced from asexual blood stage parasites in a stage-specific manner through induction of cellular stress as described previously ([Reader et al., 2015]; [Coertzen et al., 2018]; [Wong et al., 2019]; [Reader et al., 2022]).
DHA, artesunate, artemether, chloroquine (CQ), and methylene blue (MB) were used as reference drugs. […] Dose-responses were determined using a 2-fold serial drug dilution on in vitro 95% ring-stage intraerythrocytic Pf parasites (1% parasitemia, 1% hematocrit) at 37°C under 90% N2, 5% CO2, and 5% O2 atmospheric conditions, detecting SYBR green I fluorescence as a marker for parasite proliferation following a 96 h drug treatment ([Smilkstein et al., 2004]; [Verlinden et al., 2011]). Activity against the Pf drug-sensitive NF54 strain and the multi drug-resistant K1 (resistant to CQ, quinine, pyrimethamine, and cycloguanil), and W2 (resistant to CQ, quinine, pyrimethamine, and cycloguanil) strains was evaluated. […]

[2] = system: chloroquine sensitive Pf NF54 strain; conditions: tritiated hypoxanthine assay; ref Figueiredo et al., 1998; Li et al., 2019; cited from earlier work
[3] = system: multidrug resistant Pf K1 strain; conditions: tritiated hypoxanthine assay; ref Figueiredo et al., 1998; Li et al., 2019; cited from earlier work
[4] = system: asexual blood stage P. falciparum NF54 (drug sensitive); design: method as in Coertzen et al., 2018; Wong et al., 2019; conditions: SYBR Green I, mean ± SEM, ref Coertzen et al., 2018, Wong et al., 2019; cited from earlier work
[5] = system: asexual blood stage P. falciparum K1 (multidrug resistant); conditions: ref Coertzen et al., 2018, Wong et al., 2019, cited from earlier work
[6] = system: asexual blood stage P. falciparum W2 (multidrug resistant); design: method as in Coertzen et al., 2018; Wong et al., 2019; conditions: ref Coertzen et al., 2018, Wong et al., 2019, cited from earlier work
[7] = system: immature stage II-III P. falciparum NF54 gametocytes; design: method as in Coertzen et al., 2018, Wong et al., 2019; conditions: ref Coertzen et al., 2018, Wong et al., 2019, cited from earlier work
[8] = system: late stage IV-V P. falciparum NF54 gametocytes; design: method as in Coertzen et al., 2018, Wong et al., 2019; conditions: ref Coertzen et al., 2018, Wong et al., 2019, cited from earlier work
A375 melanoma cells = system: A375 melanoma cells; design: method as in Wong et al., 2020; conditions: ref Wong et al., 2020; cited from earlier work
[9] = asexual blood stage, SYBR Green I, mean ± SEM

For `CC1=C(O)C(=O)C=C2C1=CC=C1[C@@]2(C)CC[C@@]2(C)[C@@H]3C[C@](C)(C(=O)O)CC[C@]3(C)CC[C@]12C` [Celastrol, celastrol], the IC50 ([1]; Plasmodium falciparum, K1, 96 h, read-out: IC50 K1) is listed as 700 ± 100 nM, the “RI (resistance index) = IC50 K1/IC50 NF54” value ([1]; this study) is listed as 0.85 and the IC50 [2] is listed as 564 nM. The IC50 [3] was 401 nM.
For `C[C@H]1[C@H](N2CCS(=O)(=O)CC2)O[C@@H]2O[C@@]3(C)CC[C@H]4[C@H](C)CC[C@@H]1[C@@]24OO3` [Artemisone, artemisone], the IC50 [4] is listed as 1.2 nM, the IC50 [5, 9] is listed as 1.01 ± 0.19 nM and the “RI (resistance index) = IC50 K1/IC50 NF54” value [5] is listed as 0.85 ^f. For the same compound, the IC50 [6, 9] was 1.6 ± 0.4 nM, the “RI = IC50 W2/IC50 NF54” value [6] was 1.36^f and the IC50 ([7]; NF54 gametocytes, luciferase, 48 h, mean ± SEM, read-out: Immature stage II-III (luc 48 h) IC50) was 1.94 ± 0.11 nM. The “Fold change preference ratio EG to LG” value ([7]; immature vs late stage gametocytes) was 21.9, the IC50 ([8]; NF54 gametocytes, luciferase, 72 h, mean ± SEM, read-out: Late stage IV-V (luc 72 h) IC50) was 42.4 ± 3.3 nM and the “Fold change preference ratio LG to EG” value ([8]; late vs immature stage gametocytes) was 0.05. The IC50 (A375 melanoma cells) was 95700 nM.
